# Data: paper PMC11802874, “The hypolipidemic effect of MI-883, the combined CAR agonist/ PXR antagonist, in diet-induced hypercholesterolemia model” (Nature Communications, 2025)
# Marks after values point to notes of the source that are not given here.
# Assay: Pharmacokinetic study after single dose in C57BL/6N mice
# Assay type: in vivo, mouse
# Experimental: Pharmacokinetic study of MI-883 in C57BL/6N mice (9–10 weeks old, body weight 20.8 to 24.5 g and average body weight across all groups 22.7 g, SD = 1.1 g) were performed following peroral (p.o.) and intraperitoneal (i.p.) administrations. […] There was also a control group of 4 animals per route. The levels of the parent compound MI-883 were determined by LC-MS/MS in the blood plasma, brain, kidney, liver, muscle (Leg triceps), bile, small intestine, colon, and adipose tissues over time after a single dose of 10 mg/kg. Mice were injected i.p. with 2,2,2-tribromoethanol at a dose of 150 mg/kg prior to drawing the blood. Blood collection was performed from the orbital sinus in BD microtainers tubes containing K2EDTA. Animals were sacrificed by cervical dislocation after the blood samples collection. After this, samples of brain, kidney, liver, muscle (Leg triceps), small intestine, colon, and adipose tissue were collected. Bile samples were taken from the gallbladder of mice. Urine and feces samples were collected using metabolic cages over the course of 1440 min (24 h) after compound administration. All samples were immediately processed, flash-frozen, and stored at –70 °C until subsequent analysis. Detection of the presence of potential metabolites (2-chloro-5-((4-(2-(4-chlorophenyl)-7-fluoroimidazo[1,2-a]pyridin-3-yl)-1H-1,2,3-triazol-1-yl)methyl)-N-methylbenzamide or 2-(4-chlorophenyl)-7-fluoro-3-(1H-1,2,3-triazol-4-yl)imidazo[1,2-a]pyridine) in plasma and tissues was performed. MI-883 was applied in 5%DMSO – 5%PEG300 – 90%corn oil formulation with a final concentration of the compound, 2 mg/ml. Animal treatment and sample preparation were conducted by the Animal Laboratory personnel at Enamine/Bienta.
# Plasma samples (50 μl) were mixed with 200 μl of IS400 solution. After mixing by pipetting and centrifuging for 4 min at 6000 rpm, 2 μl of each supernatant was injected into the LC-MS/MS system. Solution of compound IS-19851 (400 ng/ml in acetonitrile-methanol mixture 1:1, v/v) was used as internal standard (IS400) for quantification of MI-883 in blood plasma, liver, kidney, muscle (Leg triceps), small intestine, and colon samples. Liver, kidney, muscle (Leg triceps), colon, and small intestine samples (weight 100 mg ±1 mg) were disintegrated in 500 μl of IS400 using zirconium oxide beads (120 mg ± 5 mg) in The Bullet Blender® homogenizer for 1–3 min at speed 8–12. After this, the samples were centrifuged for 3 min at 14,000 rpm, and 1 μl of each supernatant was injected into the LC-MS/MS system.
# Brain and adipose tissue samples (weight 100 mg ± 1 mg) were dispersed in 500 μl of IS400(80) using zirconium oxide beads (120 mg ± 5 mg) in The Bullet Blender® homogenizer for 30 s at speed 8. After this, the samples were centrifuged for 4 min at 14,000 rpm, and 1 μl of each supernatant was injected into the LC-MS/MS system. Solution of compound IS-19851 (400 ng/ml in water-acetonitrile-methanol mixture, 2:4:4, v/v/v) was used as internal standard (IS400(80)) for quantification of MI-883 in the brain, adipose tissue, urine, and bile samples. Urine (cumulative) and bile samples were mixed with IS400(80) solution (1:20, v/v). After mixing by pipetting and centrifuging for 4 min at 6000 rpm, 0.5 μl of each supernatant was injected into the LC-MS/MS system. Cumulative feces samples (114 mg–249 mg) were transferred to BMT-20-S tubes with 4 stainless steel balls, mixed with 20 volumes of IS400(80) solution, and dispersed using ULTRA-TURRAX Tube Drive for 1 min at 3000 rpm within the 30 min thrice. After dispersing and centrifuging for 2 min at 14,000 rpm, 0.5 μl of each supernatant was injected into the LC-MS/MS system.
# The concentration of MI-883 in plasma and tissues was determined using a high-performance liquid chromatography/tandem mass spectrometry (HPLC-MS/MS) method. […]
# [1] = male, C57BL/6N, mouse, ip, Liver, 10 mg/kg
smiles,measurement,setting,value
"NC(=O)c1cc(Cn2cc(-c3c(-c4ccc(Cl)cc4)nc4cc(F)ccn34)nn2)ccc1Cl [MI-883, 2-chloro-5-((4-(2-(4-chlorophenyl)-7-fluoroimidazo[1,2-a]pyridin-3-yl)-1H-1,2,3-triazol-1-yl)methyl)benzamide]","expected metabolites (N-methyl, N-dimethyl benzamide, triazolyl-imidazopyridine) in plasma and tissues",10 mg/kg p.o. and i.p.,No expected metabolites
same,route of excretion,"10 mg/kg, C57BL/6N mice",excreted mainly via bile
same,tissue distribution,"10 mg/kg, C57BL/6N mice","significantly distributed into the liver, but not the brain"
same,"Peroral bioavailability (%, p.o. vs. i.p.)","estimation based on comparison of AUCs after p.o. and i.p. application, 10 mg/kg",98.6* %
same,PK of MI-883: MI-883 i.p. adipose tis.,"i.p., time 10",2064
same,PK of MI-883: MI-883 i.p. adipose tis.,"i.p., time 120",2083
same,PK of MI-883: MI-883 i.p. adipose tis.,"i.p., time 240",2267
same,PK of MI-883: MI-883 i.p. adipose tis.,"i.p., time 480",1643
same,PK of MI-883: MI-883 i.p. adipose tis.,"i.p., time 720",651
same,PK of MI-883: MI-883 i.p. bile,"i.p., time 10",347
same,PK of MI-883: MI-883 i.p. bile,"i.p., time 120",5663
same,PK of MI-883: MI-883 i.p. bile,"i.p., time 240",6712
same,PK of MI-883: MI-883 i.p. bile,"i.p., time 480",17332
same,PK of MI-883: MI-883 i.p. bile,"i.p., time 720",20058
same,PK of MI-883: MI-883 i.p. brain,"i.p., time 10",20
same,PK of MI-883: MI-883 i.p. brain,"i.p., time 120",88
same,PK of MI-883: MI-883 i.p. brain,"i.p., time 240",86
same,PK of MI-883: MI-883 i.p. brain,"i.p., time 480",62
same,PK of MI-883: MI-883 i.p. brain,"i.p., time 720",33
same,PK of MI-883: MI-883 i.p. colon,"i.p., time 10",7473
same,PK of MI-883: MI-883 i.p. colon,"i.p., time 120",3182
same,PK of MI-883: MI-883 i.p. colon,"i.p., time 240",3492
same,PK of MI-883: MI-883 i.p. colon,"i.p., time 480",1531
same,PK of MI-883: MI-883 i.p. colon,"i.p., time 720",1717
same,PK of MI-883: MI-883 i.p. feces,"i.p., feces, time 1440",689 ng
same,PK of MI-883: MI-883 i.p. kidney,"i.p., time 10",1650
same,PK of MI-883: MI-883 i.p. kidney,"i.p., time 120",4299
same,PK of MI-883: MI-883 i.p. kidney,"i.p., time 240",6585
same,PK of MI-883: MI-883 i.p. kidney,"i.p., time 480",3365
same,PK of MI-883: MI-883 i.p. kidney,"i.p., time 720",1611
same,PK of MI-883: MI-883 i.p. kidney,"i.p., time 1440",11
same,PK of MI-883: MI-883 i.p. liver,"i.p., time 10",9584
same,PK of MI-883: MI-883 i.p. liver,"i.p., time 120",14064
same,PK of MI-883: MI-883 i.p. liver,"i.p., time 240",10374
same,PK of MI-883: MI-883 i.p. liver,"i.p., time 480",6478
same,PK of MI-883: MI-883 i.p. liver,"i.p., time 720",4261
same,PK of MI-883: MI-883 i.p. liver,"i.p., time 1440",24
same,PK of MI-883: MI-883 i.p. muscule,"i.p., time 10",114
same,PK of MI-883: MI-883 i.p. muscule,"i.p., time 120",913
same,PK of MI-883: MI-883 i.p. muscule,"i.p., time 240",720
same,PK of MI-883: MI-883 i.p. muscule,"i.p., time 480",687
same,PK of MI-883: MI-883 i.p. muscule,"i.p., time 720",320
same,PK of MI-883: MI-883 i.p. small intestine,"i.p., time 10",10141
same,PK of MI-883: MI-883 i.p. small intestine,"i.p., time 120",7374
same,PK of MI-883: MI-883 i.p. small intestine,"i.p., time 240",4886
same,PK of MI-883: MI-883 i.p. small intestine,"i.p., time 480",1858
same,PK of MI-883: MI-883 i.p. small intestine,"i.p., time 720",873
same,PK of MI-883: MI-883 i.p,"i.p., time 10",565
same,PK of MI-883: MI-883 i.p,"i.p., time 120",5532
same,PK of MI-883: MI-883 i.p,"i.p., time 240",3130
same,PK of MI-883: MI-883 i.p,"i.p., time 480",2314
same,PK of MI-883: MI-883 i.p,"i.p., time 720",1008
same,PK of MI-883: MI-883 i.p,"i.p., time 1440",1
same,Cmax,[1],14100 ng/mL
same,Tmax,[1],0.5 h
same,half-life,[1],2.53 h
same,Cmax,"male, C57BL/6N, mouse, ip, Plasma, 10 mg/kg",5530 ng/mL
same,Vd,"male, C57BL/6N, mouse, plasma, 10 mg/kg, calculated from data after a single dose application, read-out: volume of distribution (Vd) in mice",0.06 L
same,Cmax,"male, C57BL/6N, mouse, po, Liver, 10 mg/kg",14900 ng/mL
